Experimental data as given in patent publication US12643903B2, “Bifunctional compounds for degradation of EGFR and related methods of use” (BeiGene, Ltd., priority 2020, dated 2026).

What was measured:
EGFR LTC = target: T1, EGFR LTC (Homo sapiens, UniProt P00533, C797S/L858R/T790M); assay: Cell Degradation 3: EGFR degradation in BaF3 cells (LTC), HTRF assay; format: cell-based; conditions: 16 h treatment, EGFR degradation by HTRF
T1 construct: expressed in transfected cells; host or cells: BaF3
T1 sequence (P00533 25-1210 T790M/C797S/L858R): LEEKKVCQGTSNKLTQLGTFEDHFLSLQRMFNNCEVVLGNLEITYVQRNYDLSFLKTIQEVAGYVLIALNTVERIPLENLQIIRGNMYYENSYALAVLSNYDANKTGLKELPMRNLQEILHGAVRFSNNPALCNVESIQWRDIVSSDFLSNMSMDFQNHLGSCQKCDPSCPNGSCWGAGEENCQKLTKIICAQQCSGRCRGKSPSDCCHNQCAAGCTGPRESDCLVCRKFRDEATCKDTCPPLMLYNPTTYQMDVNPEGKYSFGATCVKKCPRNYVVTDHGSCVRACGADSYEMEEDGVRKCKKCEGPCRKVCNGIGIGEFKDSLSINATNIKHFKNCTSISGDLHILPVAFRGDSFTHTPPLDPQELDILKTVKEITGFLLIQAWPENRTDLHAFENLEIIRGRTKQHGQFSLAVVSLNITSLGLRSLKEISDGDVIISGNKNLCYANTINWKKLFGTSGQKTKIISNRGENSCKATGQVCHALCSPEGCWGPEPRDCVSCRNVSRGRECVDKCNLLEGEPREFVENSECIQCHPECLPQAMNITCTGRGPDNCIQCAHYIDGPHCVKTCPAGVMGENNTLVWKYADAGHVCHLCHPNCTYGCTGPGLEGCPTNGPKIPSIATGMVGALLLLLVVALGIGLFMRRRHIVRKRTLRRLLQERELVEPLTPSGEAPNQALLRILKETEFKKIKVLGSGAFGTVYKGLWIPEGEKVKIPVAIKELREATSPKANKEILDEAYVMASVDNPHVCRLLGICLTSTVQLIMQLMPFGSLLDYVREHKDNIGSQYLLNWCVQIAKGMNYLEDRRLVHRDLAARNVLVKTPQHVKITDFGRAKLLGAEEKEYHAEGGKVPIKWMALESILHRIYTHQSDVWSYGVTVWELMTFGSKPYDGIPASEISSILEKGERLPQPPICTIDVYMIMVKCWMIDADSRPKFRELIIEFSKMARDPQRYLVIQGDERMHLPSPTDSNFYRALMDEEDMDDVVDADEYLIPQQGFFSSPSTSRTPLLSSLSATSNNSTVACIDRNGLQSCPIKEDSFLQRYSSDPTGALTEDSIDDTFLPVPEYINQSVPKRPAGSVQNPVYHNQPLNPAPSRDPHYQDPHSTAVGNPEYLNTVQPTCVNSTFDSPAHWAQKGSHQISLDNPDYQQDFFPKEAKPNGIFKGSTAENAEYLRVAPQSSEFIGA
Description: (§1) Cell Degradation 3 Cell Treatment
(§2) BaF3 cells are treated with compounds diluted in 0.2% DMSO, dilution is done according to the following protocol: (1) make 500× stock solution in DMSO from 5 mM by 4-fold dilution, total 8 doses were included; (2) make 2× solution in cell culture medium by transferring 0.5 μl 500× stock solution into 125 μl medium; (3) 30 μl of 2× solution is added to cells and incubate for 16 h.
(§3) After 16 h treatment, add 20 μl 4×lysis buffer to each well; seal the plate and incubate 1 hour at room temperature on a plate shaker; Once the cells are lysed, 16 μL of cell lysate are transferred to a PE 384-well HTRF detection plate (for triple mutant cells, the lysate were diluted by the qual volume 1×lysis buffer before transfer); 4 μL of pre-mixed HTRF antibodies are added to each well; Cover the plate with a plate sealer, spin 1000 rpm for 1 min, Incubate overnight at room temperature; Read on BMG PheraStar with HTRF protocol (337 nm-665 nm-620 nm).
(§4) The IC50 (DC50) value of a compound can be obtained by fitting the following equation Y=Bottom+(TOP−Bottom)/(1+((IC50/X)^hillslope))
(§5) Wherein, X and Y are known values, and IC50, Hillslope, Top and Bottom are the parameters obtained by fitting with software. Y is the inhibition percentage (calculated from the equation), X is the concentration of the compound; IC50 is the concentration of the compound when the 50% inhibition is reached. The smaller the IC50 value is, the stronger the inhibitory ability of the compound is. Vice versa, the higher the IC50 value is, the weaker the ability the inhibitory ability of the compound is; Hillslope represents the slope of the fitted curve, generally around 1*; Bottom represents the minimum value of the curve obtained by data fitting, which is generally 0%±20%; Top represents the maximum value of the curve obtained by data fitting, which is generally 100%±20%. The experimental data were fitted by calculating and analyzing with Dotmatics data analysis software.

EGFR DTC = assay: Cell Degradation 3: EGFR degradation in BaF3 cells (DTC), HTRF assay; format: cell-based; conditions: 16 h treatment, EGFR degradation by HTRF
Description: as §1, §2, §3, §4, §5

`COc1cc(N2CCC(N3CCN(C4CCN(c5ccc6c(c5)C(=O)N(C5CCC(=O)NC5=O)C6=O)CC4)CC3)CC2)c(C)cc1Nc1ncc(Br)c(Nc2cccc3c2N(S(C)(=O)=O)CC3)n1` (stereo not drawn) [Example 167, 5-(4-(4-(1-(4-((5-bromo-4-((1-(methylsulfonyl)indolin-7-yl)amino)pyrimidin-2-yl)amino)-5-methoxy-2-methylphenyl)piperidin-4-yl)piperazin-1-yl)piperidin-1-yl)-2-(2,6-dioxopiperidin-3-yl)isoindoline-1,3-dione] gave a DC50 (EGFR LTC) greater than 10000 nM and a DC50 (EGFR DTC) of 225 nM.
`COc1cc(N2CCC(N3CCN(CC4CCN(c5cc(F)c(C6CCC(=O)NC6=O)c(F)c5)CC4)CC3)CC2)c(C)cc1Nc1ncc(Br)c(Nc2cccc3c2N(S(C)(=O)=O)CC3)n1` (stereo not drawn) [Example 181, 3-(4-(4-((4-(1-(4-((5-bromo-4-((1-(methylsulfonyl)indolin-7-yl)amino)pyrimidin-2-yl)amino)-5-methoxy-2-methylphenyl)piperidin-4-yl)piperazin-1-yl)methyl)piperidin-1-yl)-2,6-difluorophenyl)piperidine-2,6-dione] gave a DC50 (EGFR LTC) of 64 nM and a DC50 (EGFR DTC) of 43 nM.
`COc1cc(N2CCC(N3CCN(C4CC(c5ccc(NC6CCC(=O)NC6=O)cc5)C4)CC3)CC2)c(C)cc1Nc1ncc(Br)c(Nc2cccc3c2N(S(C)(=O)=O)CC3)n1` (stereo not drawn) [Example 182, 3-((4-(3-(4-(1-(4-((5-bromo-4-((1-(methylsulfonyl)indolin-7-yl)amino)pyrimidin-2-yl)amino)-5-methoxy-2-methylphenyl)piperidin-4-yl)piperazin-1-yl)cyclobutyl)phenyl)amino)piperidine-2,6-dione] showed a DC50 (EGFR LTC) of 70 nM and a DC50 (EGFR DTC) of 77 nM.
Compound `COc1cc(N2CCC(N3CCN(C[C@H]4C[C@H](N(C)c5ccc6c(c5)C(=O)N(C5CCC(=O)NC5=O)C6=O)C4)CC3)CC2)c(C)cc1Nc1ncc(Br)c(Nc2cccc3c2N(S(C)(=O)=O)CC3)n1` (stereo partly drawn) [Example 165, 5-(((1r,3r)-3-((4-(1-(4-((5-bromo-4-((1-(methylsulfonyl)indolin-7-yl)amino)pyrimidin-2-yl)amino)-5-methoxy-2-methylphenyl)piperidin-4-yl)piperazin-1-yl)methyl)cyclobutyl)(methyl)amino)-2-(2,6-dioxopiperidin-3-yl)isoindoline-1,3-dione] has a DC50 (EGFR LTC) of 100 nM and a DC50 (EGFR DTC) of 91 nM.
`COc1cc(N2CCC(N3CCN(CCc4cc(F)c(C5CCC(=O)NC5=O)cc4F)CC3)CC2)c(C)cc1Nc1ncc(Br)c(Nc2cccc3c2N(S(C)(=O)=O)CC3)n1` (stereo not drawn) [Example 155, 3-(4-(2-(4-(1-(4-((5-bromo-4-((1-(methylsulfonyl)indolin-7-yl)amino)pyrimidin-2-yl)amino)-5-methoxy-2-methylphenyl)piperidin-4-yl)piperazin-1-yl)ethyl)-2,5-difluorophenyl)piperidine-2,6-dione] showed a DC50 (EGFR LTC) of 56 nM and a DC50 (EGFR DTC) of 19 nM.
Compound `COc1cc(N2CCC(N3CCN(C(=O)[C@H]4C[C@H](N(C)c5ccc(C6CCC(=O)NC6=O)cc5)C4)CC3)CC2)c(C)cc1Nc1ncc(Br)c(Nc2cccc3c2N(S(C)(=O)=O)CC3)n1` (stereo partly drawn) [Example 170, 3-(4-(((1r,3r)-3-(4-(1-(4-((5-bromo-4-((1-(methylsulfonyl)indolin-7-yl)amino)pyrimidin-2-yl)amino)-5-methoxy-2-methylphenyl)piperidin-4-yl)piperazine-1-carbonyl)cyclobutyl)(methyl)amino)phenyl)piperidine-2,6-dione] has a DC50 (EGFR LTC) of 23 nM and a DC50 (EGFR DTC) of 8 nM.
`COc1cc(N2CCC(N3CCN(CCOc4cccc5c4C(=O)N(C4CCC(=O)NC4=O)C5=O)CC3)CC2)c(C)cc1Nc1ncc(Br)c(Nc2cccc3c2N(S(C)(=O)=O)CC3)n1` (stereo not drawn) [Example 166, 4-(2-(4-(1-(4-((5-bromo-4-((1-(methylsulfonyl)indolin-7-yl)amino)pyrimidin-2-yl)amino)-5-methoxy-2-methylphenyl)piperidin-4-yl)piperazin-1-yl)ethoxy)-2-(2,6-dioxopiperidin-3-yl)isoindoline-1,3-dione] was tested, and the DC50 (EGFR LTC) was 247 nM and the DC50 (EGFR DTC) was 175 nM.
`COc1cc(N2CCC(N3CCN(C(=O)C4CCN(c5cc(F)c(C6CCC(=O)NC6=O)c(F)c5)C4)CC3)CC2)c(C)cc1Nc1ncc(Br)c(Nc2cccc3c2N(S(C)(=O)=O)CC3)n1` (stereo not drawn) [Example 187, 3-(4-(3-(4-(1-(4-((5-bromo-4-((1-(methylsulfonyl)indolin-7-yl)amino)pyrimidin-2-yl)amino)-5-methoxy-2-methylphenyl)piperidin-4-yl)piperazine-1-carbonyl)pyrrolidin-1-yl)-2,6-difluorophenyl)piperidine-2,6-dione] was tested, and the DC50 (EGFR LTC) was 19 nM and the DC50 (EGFR DTC) was 14 nM.
For `COc1cc(N2CCC(N3CCN(C[C@H]4CCN(c5ccc6c(c5)C(=O)N(C5CCC(=O)NC5=O)C6=O)C4)CC3)CC2)c(C)cc1Nc1ncc(Br)c(Nc2cccc3c2N(S(C)(=O)=O)CC3)n1` (stereo partly drawn) [Example 156, 5-((R)-3-((4-(1-(4-((5-bromo-4-((1-(methylsulfonyl)indolin-7-yl)amino)pyrimidin-2-yl)amino)-5-methoxy-2-methylphenyl)piperidin-4-yl)piperazin-1-yl)methyl)pyrrolidin-1-yl)-2-(2,6-dioxopiperidin-3-yl)isoindoline-1,3-dione], the DC50 (EGFR LTC) was 33 nM and the DC50 (EGFR DTC) was 21 nM.
For `COc1cc(N2CCC(N3CCN(CCc4ccc(NC5CCC(=O)NC5=O)cc4)CC3)CC2)c(C)cc1Nc1ncc(Br)c(Nc2cccc3c2N(S(C)(=O)=O)CC3)n1` (stereo not drawn) [Example 152, 3-((4-(2-(4-(1-(4-((5-bromo-4-((1-(methylsulfonyl)indolin-7-yl)amino)pyrimidin-2-yl)amino)-5-methoxy-2-methylphenyl)piperidin-4-yl)piperazin-1-yl)ethyl)phenyl)amino)piperidine-2,6-dione], the DC50 (EGFR LTC) was 27 nM and the DC50 (EGFR DTC) was 66 nM.
With `COc1cc(N2CCC(N3CCN(CCN4CCC(c5ccc(NC6CCC(=O)NC6=O)cc5)CC4)CC3)CC2)c(C)cc1Nc1ncc(Br)c(Nc2cccc3c2N(S(C)(=O)=O)CC3)n1` (stereo not drawn) [Example 157, 3-((4-(1-(2-(4-(1-(4-((5-bromo-4-((1-(methylsulfonyl)indolin-7-yl)amino)pyrimidin-2-yl)amino)-5-methoxy-2-methylphenyl)piperidin-4-yl)piperazin-1-yl)ethyl)piperidin-4-yl)phenyl)amino)piperidine-2,6-dione] the DC50 (EGFR LTC) was 396 nM and the DC50 (EGFR DTC) was 300 nM.
`COc1cc(N2CCC(N3CCN(CC4CN(c5ccc6c(c5)C(=O)N(C5CCC(=O)NC5=O)C6)C4)CC3)CC2)c(C)cc1Nc1ncc(Br)c(Nc2cccc3c2N(S(C)(=O)=O)CC3)n1` (stereo not drawn) [Example 180, 3-(6-(3-((4-(1-(4-((5-bromo-4-((1-(methylsulfonyl)indolin-7-yl)amino)pyrimidin-2-yl)amino)-5-methoxy-2-methylphenyl)piperidin-4-yl)piperazin-1-yl)methyl)azetidin-1-yl)-1-oxoisoindolin-2-yl)piperidine-2,6-dione] was tested, and the DC50 (EGFR LTC) was 30 nM and the DC50 (EGFR DTC) was 14 nM.
In the case of `COc1cc(N2CCC(N3CCN(CC4CCN(c5ccc6c(c5)CN(C5CCC(=O)NC5=O)C6=O)CC4)CC3)CC2)c(C)cc1Nc1ncc(Br)c(Nc2cccc3c2N(S(C)(=O)=O)CC3)n1` (stereo not drawn) [Example 175, 3-(5-(4-((4-(1-(4-((5-bromo-4-((1-(methylsulfonyl)indolin-7-yl)amino)pyrimidin-2-yl)amino)-5-methoxy-2-methylphenyl)piperidin-4-yl)piperazin-1-yl)methyl)piperidin-1-yl)-1-oxoisoindolin-2-yl)piperidine-2,6-dione], the DC50 (EGFR LTC) is reported as 31 nM and the DC50 (EGFR DTC) is reported as 17 nM.
For `COc1cc(N2CCC(N3CCN(CCc4cc(F)c(C5CCC(=O)NC5=O)c(F)c4)CC3=O)CC2)c(C)cc1Nc1ncc(Br)c(Nc2cccc3c2N(S(C)(=O)=O)CC3)n1` (stereo not drawn) [Example 185, 3-(4-(2-(4-(1-(4-((5-bromo-4-((1-(methylsulfonyl)indolin-7-yl)amino)pyrimidin-2-yl)amino)-5-methoxy-2-methylphenyl)piperidin-4-yl)-3-oxopiperazin-1-yl)ethyl)-2,6-difluorophenyl)piperidine-2,6-dione], the DC50 (EGFR LTC) was 18 nM and the DC50 (EGFR DTC) was 4 nM.
Compound `COc1cc(N2CCC(N3CCN(C[C@H]4C[C@H](N(C)c5ccc(C6CCC(=O)NC6=O)cc5)C4)CC3)CC2)c(C)cc1Nc1ncc(Br)c(Nc2cccc3c2N(S(C)(=O)=O)CC3)n1` (stereo partly drawn) [Example 176, 3-(4-(((1r,3r)-3-((4-(1-(4-((5-bromo-4-((1-(methylsulfonyl)indolin-7-yl)amino)pyrimidin-2-yl)amino)-5-methoxy-2-methylphenyl)piperidin-4-yl)piperazin-1-yl)methyl)cyclobutyl)(methyl)amino)phenyl)piperidine-2,6-dione] has a DC50 (EGFR LTC) of 65 nM and a DC50 (EGFR DTC) of 94 nM.
